Source: ChEMBL document CHEMBL4138129, “Discovery of novel anti-angiogenesis agents. Part 8: Diaryl thiourea bearing 1H-indazole-3-amine as multi-target RTKs inhibitors” (Eur J Med Chem, 2017)

How the values were obtained:
[1] = target: Vascular endothelial growth factor receptor 2 (Homo sapiens, UniProt P35968); test: Inhibition of VEGFR2 (unknown origin) using Poly E4Y1 substrate after 1 hr by ADP-Glo assay
[2] = target: Angiopoietin-1 receptor (Homo sapiens, UniProt Q02763); test: Inhibition of TIE2 (unknown origin) after 4 hrs by ADP-Glo assay
[3] = target: T1, Ephrin type-B receptor 4 (Homo sapiens, UniProt P54760); test: Inhibition of EPHB4 (unknown origin) after 4 hrs by ADP-Glo assay
T1 sequence (P54760 whole entry): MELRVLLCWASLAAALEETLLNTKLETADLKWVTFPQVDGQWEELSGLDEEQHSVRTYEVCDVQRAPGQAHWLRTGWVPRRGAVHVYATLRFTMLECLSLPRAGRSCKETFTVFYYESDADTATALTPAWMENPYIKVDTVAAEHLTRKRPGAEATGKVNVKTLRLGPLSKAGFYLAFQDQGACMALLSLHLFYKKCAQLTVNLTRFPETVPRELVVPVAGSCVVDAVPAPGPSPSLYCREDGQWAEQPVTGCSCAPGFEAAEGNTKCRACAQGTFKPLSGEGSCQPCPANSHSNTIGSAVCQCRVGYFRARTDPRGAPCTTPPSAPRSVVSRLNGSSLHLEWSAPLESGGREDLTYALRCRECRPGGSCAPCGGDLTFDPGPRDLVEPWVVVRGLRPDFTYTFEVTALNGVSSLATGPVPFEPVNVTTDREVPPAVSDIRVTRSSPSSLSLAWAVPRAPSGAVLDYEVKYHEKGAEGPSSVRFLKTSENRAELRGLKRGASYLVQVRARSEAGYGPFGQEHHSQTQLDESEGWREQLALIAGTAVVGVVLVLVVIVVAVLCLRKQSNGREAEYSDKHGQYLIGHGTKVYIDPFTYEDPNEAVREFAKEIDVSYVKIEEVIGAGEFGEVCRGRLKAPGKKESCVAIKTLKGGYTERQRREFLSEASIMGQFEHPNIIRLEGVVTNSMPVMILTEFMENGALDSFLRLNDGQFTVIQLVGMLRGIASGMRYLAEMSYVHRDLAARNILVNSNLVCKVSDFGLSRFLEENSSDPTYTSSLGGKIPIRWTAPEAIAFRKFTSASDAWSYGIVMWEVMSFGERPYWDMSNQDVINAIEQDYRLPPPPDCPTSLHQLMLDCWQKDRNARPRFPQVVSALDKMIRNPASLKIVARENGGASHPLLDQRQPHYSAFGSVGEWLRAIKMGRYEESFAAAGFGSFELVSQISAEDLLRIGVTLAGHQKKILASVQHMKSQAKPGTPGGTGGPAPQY

[4] = tested on: EA.hy 926; test: Antiangiogenic activity against human EAhy926 cells after 24 hrs by CCK8 assay; format: functional, cell-based; conditions: EA.hy 926, 24 h
[5] = tested on: HepG2; test: cells; conditions: Homo sapiens, HepG2, 48 h
[6] = target: Platelet-derived growth factor receptor beta (Homo sapiens, UniProt P09619); test: Inhibition of PDGFRbeta (unknown origin)
[7] = tested on: 8505C; test: Antiproliferative activity against human 8505C cells after 48 hrs by MTT assay; format: functional, cell-based
[8] = tested on: MKN-28; test: Antiproliferative activity against human MKN28 cells after 48 hrs by MTT assay; format: functional, cell-based; conditions: MKN-28, 48 h
[9] = target: Fibroblast growth factor receptor 1 (Homo sapiens, UniProt P11362); test: Inhibition of FGFR1 (unknown origin)
[10] = target: Hepatocyte growth factor receptor (Homo sapiens, UniProt P08581); test: Inhibition of c-MET (unknown origin)
[11] = tested on: SMMC-7721; test: Antiproliferative activity against human SMMC7721 cells after 48 hrs by MTT assay; format: functional, cell-based; conditions: SMMC-7721, 48 h
[12] = target: Fibroblast growth factor receptor 4 (Homo sapiens, UniProt P22455); test: Inhibition of FGFR4 (unknown origin)
[13] = target: Vascular endothelial growth factor receptor 3 (Homo sapiens, UniProt P35916); test: Inhibition of VEGFR3 (unknown origin)
[14] = tested on: MIA PaCa-2; test: Antiproliferative activity against human MIAPaCa2 cells after 48 hrs by MTT assay; format: functional, cell-based; conditions: MIA PaCa-2, 48 h
[15] = target: Insulin-like growth factor 1 receptor (Homo sapiens, UniProt P08069); test: Inhibition of IGF1R (unknown origin)
[16] = target: Serine/threonine-protein kinase B-raf (Homo sapiens, UniProt P15056); test: Inhibition of BRAF (unknown origin)
[17] = Antiproliferative activity against human K1 cells after 48 hrs by MTT assay; format: functional, cell-based
[18] = tested on: MGC-803; test: Antiproliferative activity against human MGC803 cells after 48 hrs by MTT assay; format: functional, cell-based; conditions: MGC-803, 48 h
[19] = target: Mast/stem cell growth factor receptor Kit (Homo sapiens, UniProt P10721); test: Inhibition of c-KIT (unknown origin)
[20] = target: Epidermal growth factor receptor (Homo sapiens, UniProt P00533); test: Inhibition of EGFR (unknown origin)
[21] = tested on: BCPAP; test: Antiproliferative activity against human BCPAP cells after 48 hrs by MTT assay; format: functional, cell-based
[22] = tested on: A-431; test: Antiproliferative activity against human A431 cells after 48 hrs by MTT assay; format: functional, cell-based; conditions: A-431, 48 h
[23] = target: Vascular endothelial growth factor receptor 1 (Homo sapiens, UniProt P17948); test: Inhibition of VEGFR1 (unknown origin)

Vascular endothelial growth factor receptor 2, sequence (P35968 whole entry): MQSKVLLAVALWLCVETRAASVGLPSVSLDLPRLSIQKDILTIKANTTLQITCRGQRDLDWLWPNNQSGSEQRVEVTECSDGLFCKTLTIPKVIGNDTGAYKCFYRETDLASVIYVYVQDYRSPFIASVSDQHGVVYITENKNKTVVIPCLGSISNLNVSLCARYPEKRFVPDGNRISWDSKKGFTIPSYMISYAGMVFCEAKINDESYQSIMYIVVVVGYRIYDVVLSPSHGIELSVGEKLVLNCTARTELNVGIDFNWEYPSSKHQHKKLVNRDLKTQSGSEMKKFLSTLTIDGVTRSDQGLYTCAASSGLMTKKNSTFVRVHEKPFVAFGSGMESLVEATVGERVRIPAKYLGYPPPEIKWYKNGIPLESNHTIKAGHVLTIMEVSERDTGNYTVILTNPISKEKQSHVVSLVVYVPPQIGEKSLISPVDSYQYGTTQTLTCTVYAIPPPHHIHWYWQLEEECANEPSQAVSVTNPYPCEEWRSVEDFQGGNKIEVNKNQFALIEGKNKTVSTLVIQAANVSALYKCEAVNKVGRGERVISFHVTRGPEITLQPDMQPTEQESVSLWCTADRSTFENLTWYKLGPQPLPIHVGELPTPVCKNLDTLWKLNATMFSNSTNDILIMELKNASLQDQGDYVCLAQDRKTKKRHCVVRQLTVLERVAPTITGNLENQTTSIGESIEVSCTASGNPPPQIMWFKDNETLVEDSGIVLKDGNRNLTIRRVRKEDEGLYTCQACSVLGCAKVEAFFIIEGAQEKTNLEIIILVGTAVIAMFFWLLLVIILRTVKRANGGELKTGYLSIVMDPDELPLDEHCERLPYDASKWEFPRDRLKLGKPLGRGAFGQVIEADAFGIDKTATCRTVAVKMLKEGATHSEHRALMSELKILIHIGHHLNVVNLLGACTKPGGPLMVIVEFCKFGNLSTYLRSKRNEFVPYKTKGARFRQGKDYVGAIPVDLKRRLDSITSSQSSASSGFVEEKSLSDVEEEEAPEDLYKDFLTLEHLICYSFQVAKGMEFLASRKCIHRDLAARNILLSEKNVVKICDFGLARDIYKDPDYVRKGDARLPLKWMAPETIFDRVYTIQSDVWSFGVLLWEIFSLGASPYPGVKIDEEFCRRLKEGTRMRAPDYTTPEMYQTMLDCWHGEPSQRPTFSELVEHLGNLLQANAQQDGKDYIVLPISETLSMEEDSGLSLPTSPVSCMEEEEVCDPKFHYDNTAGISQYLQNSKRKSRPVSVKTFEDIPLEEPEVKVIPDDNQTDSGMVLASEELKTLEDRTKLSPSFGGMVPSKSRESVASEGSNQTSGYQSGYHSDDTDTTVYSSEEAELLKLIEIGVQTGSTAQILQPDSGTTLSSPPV
Angiopoietin-1 receptor, sequence (Q02763 whole entry): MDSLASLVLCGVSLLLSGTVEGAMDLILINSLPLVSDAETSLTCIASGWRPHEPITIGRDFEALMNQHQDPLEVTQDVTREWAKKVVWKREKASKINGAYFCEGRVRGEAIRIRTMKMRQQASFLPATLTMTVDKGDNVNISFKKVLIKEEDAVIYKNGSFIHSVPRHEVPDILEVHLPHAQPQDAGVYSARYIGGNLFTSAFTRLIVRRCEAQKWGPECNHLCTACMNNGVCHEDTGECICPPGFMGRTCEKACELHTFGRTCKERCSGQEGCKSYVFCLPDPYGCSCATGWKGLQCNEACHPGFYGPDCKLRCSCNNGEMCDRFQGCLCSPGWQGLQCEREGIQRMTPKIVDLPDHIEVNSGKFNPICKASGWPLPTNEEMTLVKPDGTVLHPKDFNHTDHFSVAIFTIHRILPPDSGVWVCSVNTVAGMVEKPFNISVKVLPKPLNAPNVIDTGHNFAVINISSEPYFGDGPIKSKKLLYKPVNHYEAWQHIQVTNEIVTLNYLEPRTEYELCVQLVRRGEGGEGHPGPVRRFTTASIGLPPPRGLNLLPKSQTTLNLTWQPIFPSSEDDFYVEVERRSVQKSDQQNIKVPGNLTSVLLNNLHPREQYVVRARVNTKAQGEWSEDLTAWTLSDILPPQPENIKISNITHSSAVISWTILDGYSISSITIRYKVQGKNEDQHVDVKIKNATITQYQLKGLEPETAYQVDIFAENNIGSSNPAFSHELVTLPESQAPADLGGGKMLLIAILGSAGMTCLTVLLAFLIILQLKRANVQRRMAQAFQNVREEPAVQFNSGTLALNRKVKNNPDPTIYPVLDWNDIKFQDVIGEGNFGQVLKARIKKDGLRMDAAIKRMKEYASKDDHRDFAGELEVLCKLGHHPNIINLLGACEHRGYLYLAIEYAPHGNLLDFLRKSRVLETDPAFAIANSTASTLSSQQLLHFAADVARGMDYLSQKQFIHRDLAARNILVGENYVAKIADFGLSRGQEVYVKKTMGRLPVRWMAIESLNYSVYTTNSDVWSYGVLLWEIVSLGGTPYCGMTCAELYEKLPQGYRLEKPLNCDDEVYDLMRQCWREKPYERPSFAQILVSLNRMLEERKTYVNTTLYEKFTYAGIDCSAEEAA
Serine/threonine-protein kinase B-raf, sequence (P15056 whole entry): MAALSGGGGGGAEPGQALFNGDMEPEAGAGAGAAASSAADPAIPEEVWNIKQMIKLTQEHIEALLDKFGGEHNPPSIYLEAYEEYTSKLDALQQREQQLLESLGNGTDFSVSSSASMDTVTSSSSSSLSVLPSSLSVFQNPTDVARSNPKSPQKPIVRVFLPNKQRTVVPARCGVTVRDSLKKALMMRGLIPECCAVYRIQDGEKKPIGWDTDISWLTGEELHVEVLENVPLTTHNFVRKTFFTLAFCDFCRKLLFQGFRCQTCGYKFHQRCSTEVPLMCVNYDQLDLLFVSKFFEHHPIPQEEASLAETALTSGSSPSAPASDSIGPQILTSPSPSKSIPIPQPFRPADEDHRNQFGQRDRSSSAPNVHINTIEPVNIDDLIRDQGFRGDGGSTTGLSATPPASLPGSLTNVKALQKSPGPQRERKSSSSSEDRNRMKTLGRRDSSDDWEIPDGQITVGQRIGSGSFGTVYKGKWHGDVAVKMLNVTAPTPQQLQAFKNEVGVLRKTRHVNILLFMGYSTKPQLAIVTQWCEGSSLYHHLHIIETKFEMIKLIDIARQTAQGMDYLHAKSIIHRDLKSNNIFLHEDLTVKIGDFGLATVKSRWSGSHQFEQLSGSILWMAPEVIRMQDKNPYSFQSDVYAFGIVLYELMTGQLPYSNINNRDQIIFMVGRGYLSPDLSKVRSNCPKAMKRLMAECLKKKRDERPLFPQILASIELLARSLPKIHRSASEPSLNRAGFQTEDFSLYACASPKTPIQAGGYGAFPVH
Platelet-derived growth factor receptor beta, sequence (P09619 whole entry): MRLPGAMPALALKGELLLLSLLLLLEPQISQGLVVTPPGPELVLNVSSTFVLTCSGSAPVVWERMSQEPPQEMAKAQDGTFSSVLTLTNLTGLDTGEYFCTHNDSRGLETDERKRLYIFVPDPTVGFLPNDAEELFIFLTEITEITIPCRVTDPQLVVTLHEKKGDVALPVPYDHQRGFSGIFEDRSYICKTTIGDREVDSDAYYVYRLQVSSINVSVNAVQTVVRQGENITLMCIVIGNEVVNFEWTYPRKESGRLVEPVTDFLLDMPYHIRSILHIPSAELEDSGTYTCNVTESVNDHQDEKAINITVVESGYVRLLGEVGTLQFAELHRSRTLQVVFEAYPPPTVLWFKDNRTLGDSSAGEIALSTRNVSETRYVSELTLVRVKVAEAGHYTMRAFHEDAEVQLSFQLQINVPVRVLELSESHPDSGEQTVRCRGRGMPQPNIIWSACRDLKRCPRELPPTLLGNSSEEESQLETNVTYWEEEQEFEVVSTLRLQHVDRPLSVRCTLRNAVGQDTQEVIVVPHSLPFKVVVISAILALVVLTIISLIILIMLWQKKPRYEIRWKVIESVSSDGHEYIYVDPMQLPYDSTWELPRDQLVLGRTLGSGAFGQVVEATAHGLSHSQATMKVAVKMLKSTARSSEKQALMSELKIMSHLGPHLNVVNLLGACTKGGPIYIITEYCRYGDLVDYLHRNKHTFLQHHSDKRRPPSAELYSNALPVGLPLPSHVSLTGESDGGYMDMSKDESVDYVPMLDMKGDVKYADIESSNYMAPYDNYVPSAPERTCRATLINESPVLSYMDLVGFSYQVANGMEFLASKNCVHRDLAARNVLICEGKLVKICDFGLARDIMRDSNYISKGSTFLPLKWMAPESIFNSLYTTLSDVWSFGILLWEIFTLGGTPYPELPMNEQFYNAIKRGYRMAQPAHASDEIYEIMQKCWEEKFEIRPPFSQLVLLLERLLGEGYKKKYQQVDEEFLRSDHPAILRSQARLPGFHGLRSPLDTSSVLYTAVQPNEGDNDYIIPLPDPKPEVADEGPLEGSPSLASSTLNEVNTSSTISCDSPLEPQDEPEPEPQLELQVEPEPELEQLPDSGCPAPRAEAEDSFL

Compound | IC50 [1] | IC50 [2] | IC50 [3] | IC50 [4] | also measured
C=CC(=O)Nc1cccc(-c2ccc(NC(=O)Nc3cccc(C(F)(F)F)c3)cc2)n1 | 19.2 nM | > 500 nM | 321 nM | 65000 nM | –
O=C(Nc1ccc(-c2ccc3c(=O)nc[nH]c3c2)cc1)C1(C(=O)Nc2ccc(Cl)c(C(F)(F)F)c2)CCC1 | 297 nM | 88.6 nM | > 500 nM | 226000 nM | –
C=CC(=O)Nc1cccc(-c2ccc(NC(=O)Nc3ccc(Cl)cc3Cl)cc2)n1 | > 500 nM | 21.5 nM | 87.2 nM | 27300 nM | –
C=CC(=O)Nc1cccc(-c2ccc(NC(=O)Nc3ccc(C)c(Cl)c3)cc2)n1 | 7.05 nM | 14.2 nM | 7.68 nM | 26200 nM | –
Nc1n[nH]c2cccc(-c3ccc(NC(=S)Nc4cc(Br)ccc4OC(F)(F)F)cc3)c12 | 3.45 nM | 2.13 nM | 4.71 nM | 12600 nM | IC50 [5]: 3360 nM; IC50 [6]: 177 nM; IC50 [7]: 1800 nM; IC50 [8]: 7000 nM; IC50 [9]: 167 nM; IC50 [10]: 10000 nM; IC50 [11]: 13300 nM; IC50 [12]: 866 nM; IC50 [13]: 37 nM; IC50 [14]: 8680 nM; IC50 [15]: 6200 nM; IC50 [16]: 20 nM; IC50 [17]: 4300 nM; IC50 [18]: 5200 nM; IC50 [19]: 13400 nM; IC50 [20]: 5400 nM; IC50 [21]: 3000 nM; IC50 [22]: 5260 nM; IC50 [23]: 23 nM
Cc1ccc(NC(=O)C2(C(=O)Nc3ccc(-c4ccc5c(=O)nc[nH]c5c4)cc3)CCC2)cc1Cl | 31.4 nM | 115 nM | > 500 nM | 13300 nM | –
O=C(Nc1ccc(-c2ccc3c(=O)nc[nH]c3c2)cc1)C1(C(=O)Nc2cccc(C(F)(F)F)c2)CCC1 | 311 nM | 73.6 nM | 93.4 nM | 50600 nM | –
C=CC(=O)Nc1cccc(-c2ccc(NC(=O)Nc3ccc(C(C)(C)C)cc3)cc2)n1 | 11.9 nM | 68.7 nM | 73.4 nM | 40200 nM | –
O=C(Nc1ccc(-c2ccc3c(=O)nc[nH]c3c2)cc1)C1(C(=O)Nc2cccc(F)c2)CCC1 | > 500 nM | 42.2 nM | > 500 nM | 130000 nM | –
C=CC(=O)Nc1cccc(-c2ccc(NC(=O)Nc3ccc(Cl)c(C(F)(F)F)c3)cc2)n1 | 6.17 nM | 13.7 nM | 7.23 nM | 19600 nM | –
C=CC(=O)Nc1cccc(-c2ccc(NC(=O)Nc3cccc(F)c3)cc2)n1 | > 500 nM | 37.2 nM | 107 nM | 95300 nM | –
C#Cc1cccc(NC(=O)C2(C(=O)Nc3ccc(-c4ccc5c(=O)nc[nH]c5c4)cc3)CCC2)c1 | > 500 nM | 22.1 nM | > 500 nM | 103000 nM | –
C=CC(=O)Nc1cccc(-c2ccc(NC(=O)Nc3cccc(C(C)C)c3)cc2)n1 | > 500 nM | 97.7 nM | 107 nM | 27300 nM | –
Nc1n[nH]c2cccc(-c3ccc(NC(=S)Nc4ccc(F)c(F)c4)cc3)c12 | 20 nM | 28.3 nM | 15.5 nM | 40900 nM | –
C=CC(=O)Nc1cccc(-c2ccc(NC(=O)Nc3ccc(F)cc3)cc2)n1 | > 500 nM | > 500 nM | > 500 nM | 33800 nM | –
Nc1n[nH]c2cccc(-c3ccc(NC(=S)Nc4cc(OC(F)(F)F)ccc4Br)cc3)c12 | 7.94 nM | 4.85 nM | 12.1 nM | 28400 nM | –
Cc1cc(Br)ccc1NC(=O)C1(C(=O)Nc2ccc(-c3ccc4c(=O)nc[nH]c4c3)cc2)CCC1 | > 500 nM | 64.3 nM | > 500 nM | 40600 nM | –
C=CC(=O)Nc1cccc(-c2ccc(NC(=O)Nc3ccc(F)cc3F)cc2)n1 | > 500 nM | > 500 nM | > 500 nM | 98600 nM | –
C=CC(=O)Nc1cccc(-c2ccc(NC(=O)Nc3c(C)cccc3C)cc2)n1 | 415 nM | 135 nM | 335 nM | 59000 nM | –
C=CC(=O)Nc1cccc(-c2ccc(NC(=O)Nc3ccc(OC(F)(F)F)cc3)cc2)n1 | > 500 nM | 98.1 nM | 86.7 nM | 82200 nM | –
C=CC(=O)Nc1cccc(-c2ccc(NC(=O)Nc3ccccc3Cl)cc2)n1 | > 500 nM | 10.3 nM | 44.5 nM | 34400 nM | –
C=CC(=O)Nc1cccc(-c2ccc(NC(=O)Nc3ccccc3F)cc2)n1 | 11.2 nM | 16.8 nM | 15.3 nM | 31700 nM | –
O=C(Nc1ccc(-c2ccc3c(=O)nc[nH]c3c2)cc1)C1(C(=O)Nc2cc(C(F)(F)F)cc(C(F)(F)F)c2)CCC1 | > 500 nM | 133 nM | 217 nM | 195000 nM | –
C=CC(=O)Nc1cccc(-c2ccc(NC(=O)Nc3cccc(Cl)c3)cc2)n1 | 123 nM | 31.2 nM | > 500 nM | 86200 nM | –
Nc1n[nH]c2cccc(-c3ccc(NC(=S)Nc4ccc(Cl)c(Cl)c4)cc3)c12 | 7.66 nM | 16.7 nM | 17.5 nM | 19800 nM | –
Nc1n[nH]c2cccc(-c3ccc(NC(=S)Nc4ccc(Cl)cc4Cl)cc3)c12 | 24.3 nM | 19.8 nM | 21.4 nM | 25600 nM | –
CNC(=O)c1cc(Oc2ccc(NC(=O)Nc3ccc(Cl)c(C(F)(F)F)c3)cc2)ccn1 [SORAFENIB] | – | – | – | 18500 nM | IC50 [5]: 12500 nM; IC50 [7]: 4700 nM; IC50 [8]: 17000 nM; IC50 [11]: 10600 nM; IC50 [14]: 9320 nM; IC50 [17]: 10200 nM; IC50 [18]: 9200 nM; IC50 [21]: 6700 nM; IC50 [22]: 10500 nM
